Laboratory results reported in US20090269795A1, “Mutant alpha4betadelta GABAA receptor and methods of treating anxiety or irritability” (priority 2007, published 2009).

Tested on: CA1 hippocampal pyramidal cells
Experiment: Input resistance and neuronal excitability (spiking), hippocampal slice
Format: cell-based, mouse
Procedure: Tonic current was recorded as the difference current produced by 120 μM gabazine, which blocks all GABAA receptor, before and after 30 nM THP^24. Current was also recorded in response to 2 s 10 mV steps in the holding potential, and current-voltage curves generated to the steady-state current. Because fast-inactivating conductances would not be excluded in a voltage ramp, stable steady-state current responses were used instead to construct the current-voltage (IV) curves. Input resistance (Rm) was calculated from the current response to voltage steps from −60 to −40 mV using Ohm's Law. The reversal potential was determined by the […] of the IV curve (−90 to −10 mV). The gabazine-sensitive slope conductance was assessed as the slope of the linear portion of outward current plot recorded before and after THP after subtraction of the gabazine-generated current (in the presence of L-655,708 to block α5-GABAA receptors). Only data with a stable baseline and pipet access resistance <10 MΩ were included in the analysis.
Effects of THP on cell excitability were tested by monitoring spiking using cell attached patch recordings^31 in voltage clamp mode (−40 mV holding potential, 150 mM NaCl intrapipet solution) or assessing the current threshold to spiking and spike frequency in current clamp mode (0.01-0.3 nA steps, starting from −1 nA, 1 s duration). (More complete details are supplied in the Supplementary Methods.)

[1] = puberty, whole cell current clamp

Compound: CC(=O)[C@H]1CC[C@H]2[C@@H]3CC[C@H]4C[C@H](O)CC[C@]4(C)[C@H]3CC[C@]12C [THP, 3α-OH-5α[β]-pregnan-20-one]
- increase of input resistance (30 nM THP, puberty, 10 mV steps −60 to −40): 38±5%
- effect on input resistance (before puberty): decreased input resistance
- effect on neuronal excitability (before puberty): decreased neuronal excitability
- effect on spiking, cell-attached (puberty): increased spiking
- effect on action potential frequency [1]: increased action potential frequency
- effect on current threshold for spiking (I threshold) [1]: reduced the amount of current necessary for triggering a spike
- THP-induced increase of input resistance (slices from δ−/− mice): not seen
- excitatory effect on neuronal firing (slices from δ−/− mice): not observed
